Laboratory results published in article PMC12528448, “Resistance to CDK7 inhibitors directed by acquired mutation of a conserved residue in cancer cells” (The EMBO Journal, 2025).
Several values for one entry are separate records, joined by “and”; a condition that tells them apart may be missing. Equal entries are not always repeated.

Key:
Format in all cases: cell-based, human
22Rv1 cells = experiment: Growth assay (SRB), 22Rv1
Protocol: (§1) To determine the IC50 of drug treatments on growth, cells were seeded in 96-well culture plates. Two days after seeding, the cells were treated with increasing concentrations of drugs and incubated for 4 days. Cell number was determined using the SRB assay (Skehan et al, [1990]), and IC50 values were calculated using non-linear regression curve fitting in GraphPad Prism v10. For all other growth experiments, cells were seeded into 96-well plates, and appropriate drugs were added 2 days after seeding. Cells were then incubated in an IncuCyte Zoom live-cell imager, with cell confluency measured every 6 h. Cell doubling times were determined by non-linear curve fitting (exponential growth equation) in GraphPad Prism v10.

LNCaP-CDK7-D97N cells = experiment: Growth assay (SRB), LNCaP CDK7-D97N knock-in; conditions: for % Growth: LNCaP CDK7 D99N
Protocol: as §1
(§2) Alt-R^TM S.p. Cas9 nuclease V3, Alt-R CRISPR-Cas9 crRNA, TracrRNA and the donor templates were obtained from Integrated DNA Technologies. […] Cells were treated with 0.7 µM of Alt-R HDR Enhancer V2 to improve HRD efficiency. Sequences of the CRISPRs in the crRNA and the donor templates are shown in the Reagents and tools table. Donor templates were designed to include non-coding substitutions to aid genome DNA PCR for identifying knock-in events and to facilitate cloning; these substitutions are noted in the Reagents and tools table.

MCF7-CDK7-D97N cells = experiment: Growth assay (SRB), MCF7 CDK7-D97N knock-in; conditions: for % Growth: MCF7 CDK7 D99N, biological reps
Protocol: as §1, §2

LNCaP cells = experiment: Growth assay (SRB), LNCaP
Protocol: as §1

22Rv1-SamR cells = experiment: Growth assay (SRB), Samuraciclib-resistant 22Rv1; conditions: for % Growth: 22Rv1 SamR, 4 days, biological reps
Protocol: as §1

22Rv1-CDK7-D97N cells = experiment: Growth assay (SRB), 22Rv1 CDK7-D97N knock-in pool; conditions: for % Growth: 22Rv1 CDK7 D99N
Protocol: as §1, §2

MCF7 cells = experiment: Growth assay (SRB), MCF7; conditions: for % Growth: biological reps
Protocol: as §1

In the case of `C=CC(=O)Nc1ccc(C(=O)Nc2[nH]nc3c2CN(C(=O)N[C@H](CN(C)C)c2ccccc2)C3(C)C)cc1` [YKL-5-124], the “% Growth” value (22Rv1 cells; 22Rv1, Log10 Conc. (nM) 0.09) is reported as 59.88% and 63.28%, the “% Growth” value (22Rv1 cells; 22Rv1, Log10 Conc. (nM) 0.69) is reported as 24.70% and 25.33% and the “% Growth” value (22Rv1 cells; 22Rv1, Log10 Conc. (nM) 1.29) is reported as 14.01% and 10.35%. The “% Growth” value (22Rv1 cells; 22Rv1, Log10 Conc. (nM) 1.89) was 12.24% and 10.17%, the “% Growth” value (22Rv1 cells; 22Rv1, Log10 Conc. (nM) 2.49) was 11.07% and 8.36% and the “% Growth” value (22Rv1 cells; 22Rv1, Log10 Conc. (nM) 3.10) was 1.88% and 3.47%. The “% Growth” value (22Rv1 cells; 22Rv1, Log10 Conc. (nM) 3.70) was 0.13% and -0.45%, the “% Growth” value (22Rv1 cells; 22Rv1, Log10 Conc. (nM) -0.52) was 83.49% and 90.26% and the “% Growth” value (22Rv1 cells; 22Rv1, Log10 Conc. (nM) -1.12) was 94.90% and 93.56%. The “% Growth” value (22Rv1 cells; 22Rv1, Log10 Conc. (nM) 0.09, 4 days, biological reps) was 93.20% and 88.05%, the “% Growth” value (22Rv1 cells; 22Rv1, Log10 Conc. (nM) 0.69, 4 days, biological reps) was 85.45% and 77.80% and the “% Growth” value (22Rv1 cells; 22Rv1, Log10 Conc. (nM) 1.29, 4 days, biological reps) was 56.44% and 44.90%. For the same compound, the “% Growth” value (22Rv1 cells; 22Rv1, Log10 Conc. (nM) 1.89, 4 days, biological reps) was 5.80% and -0.07%, the “% Growth” value (22Rv1 cells; 22Rv1, Log10 Conc. (nM) 2.49, 4 days, biological reps) was -4.12% and -6.31% and the “% Growth” value (22Rv1 cells; 22Rv1, Log10 Conc. (nM) 3.10, 4 days, biological reps) was -6.49% and -7.67%. For the same compound, the “% Growth” value (22Rv1 cells; 22Rv1, Log10 Conc. (nM) 3.70, 4 days, biological reps) was -6.63% and -7.61%, the “% Growth” value (22Rv1 cells; 22Rv1, Log10 Conc. (nM) -0.52, 4 days, biological reps) was 98.36% and 93.94% and the “% Growth” value (22Rv1 cells; 22Rv1, Log10 Conc. (nM) -1.12, 4 days, biological reps) was 96.18% and 94.83%. The “% Growth” value (LNCaP-CDK7-D97N cells; Log10 Conc. (nM) 0.09) was 95.98% and 86.14%, the “% Growth” value (LNCaP-CDK7-D97N cells; Log10 Conc. (nM) 0.69) was 91.96% and 46.53% and the “% Growth” value (LNCaP-CDK7-D97N cells; Log10 Conc. (nM) -0.52) was 97.82% and 101.86%. For the same compound, the “% Growth” value (LNCaP-CDK7-D97N cells; Log10 Conc. (nM) -1.12) was 92.55% and 85.18%, the “Sensitivity in growth assays” value (LNCaP-CDK7-D97N cells; LNCaP-CDK7-D97N vs parental) was “remaining sensitive” and the “Resistance (Fold)” value (MCF7-CDK7-D97N cells; MCF7-CDK7-D97N vs MCF7 WT) was 1.45 fold. The IC50 (MCF7-CDK7-D97N cells; MCF7-CDK7-D97N, 4 days, SRB) was 8 nM, the “% Growth” value (MCF7-CDK7-D97N cells; Log10 Conc. (nM) 0.09, 4 days) was 94.47% and 108.04% and 95.31% and 94.01% and the “% Growth” value (MCF7-CDK7-D97N cells; Log10 Conc. (nM) 0.69, 4 days) was 69.10% and 46.95% and 78.88% and 82.06%. For the same compound, the “% Growth” value (MCF7-CDK7-D97N cells; Log10 Conc. (nM) -0.52, 4 days) was 98.82% and 155.20% and 98.59% and 96.08%, the “% Growth” value (MCF7-CDK7-D97N cells; Log10 Conc. (nM) -1.12, 4 days) was 96.88% and 112.86% and 97.89% and 98.06% and the “% Growth” value (LNCaP cells; Log10 Conc. (nM) 0.09) was 110.86% and 92.81%. The “% Growth” value (LNCaP cells; Log10 Conc. (nM) 0.69) was 85.55% and 79.81%, the “% Growth” value (LNCaP cells; Log10 Conc. (nM) 3.70) was -11.67% and -9.39% and the “% Growth” value (LNCaP cells; Log10 Conc. (nM) -0.52) was 109.97% and 100.05%. For the same compound, the “% Growth” value (LNCaP cells; Log10 Conc. (nM) -1.12) was 106.79% and 104.82%, the “Sensitivity in growth assays” value (22Rv1-SamR cells; 22Rv1-SamR) was “remained sensitive” and the “Resistance (Fold), fold increase in IC50 of 22Rv1-SamR relative to 22Rv1” value (22Rv1-SamR cells; 22Rv1-SamR vs 22Rv1) was 2.0 fold. The “% Growth” value (22Rv1-SamR cells; Log10 Conc. (nM) 0.09) was 83.75% and 87.25%, the “% Growth” value (22Rv1-SamR cells; Log10 Conc. (nM) 0.69) was 68.41% and 67.61% and the “% Growth” value (22Rv1-SamR cells; Log10 Conc. (nM) 1.29) was 30.25% and 41.41%. The “% Growth” value (22Rv1-SamR cells; Log10 Conc. (nM) 1.89) was -7.69% and -2.73%, the “% Growth” value (22Rv1-SamR cells; Log10 Conc. (nM) 2.49) was -11.43% and -7.53% and the “% Growth” value (22Rv1-SamR cells; Log10 Conc. (nM) 3.10) was -11.82% and -8.43%. The “% Growth” value (22Rv1-SamR cells; Log10 Conc. (nM) 3.70) was -15.22% and -10.53%, the “% Growth” value (22Rv1-SamR cells; Log10 Conc. (nM) -0.52) was 93.15% and 99.90% and the “% Growth” value (22Rv1-SamR cells; Log10 Conc. (nM) -1.12) was 93.43% and 95.60%. For the same compound, the “Sensitivity in growth assays” value (22Rv1-CDK7-D97N cells; 22Rv1-CDK7-D97N vs parental) was “remaining sensitive”, the “% Growth” value (22Rv1-CDK7-D97N cells; Log10 Conc. (nM) 0.09) was 95.04% and 95.37% and the “% Growth” value (22Rv1-CDK7-D97N cells; Log10 Conc. (nM) 0.69) was 93.89% and 97.25%. The “% Growth” value (22Rv1-CDK7-D97N cells; Log10 Conc. (nM) 1.29) was 85.36% and 88.43%, the “% Growth” value (22Rv1-CDK7-D97N cells; Log10 Conc. (nM) 1.89) was 88.25% and 90.69% and the “% Growth” value (22Rv1-CDK7-D97N cells; Log10 Conc. (nM) 2.49) was 93.92% and 88.27%. For the same compound, the “% Growth” value (22Rv1-CDK7-D97N cells; Log10 Conc. (nM) 3.10) was 65.35% and 66.63%, the “% Growth” value (22Rv1-CDK7-D97N cells; Log10 Conc. (nM) 3.70) was 34.13% and 30.83% and the “% Growth” value (22Rv1-CDK7-D97N cells; Log10 Conc. (nM) -0.52) was 104.35% and 94.29%. The “% Growth” value (22Rv1-CDK7-D97N cells; Log10 Conc. (nM) -1.12) was 96.98% and 94.29%, the IC50 (MCF7 cells; 4 days, SRB) was 5.5 nM and the “% Growth” value (MCF7 cells; Log10 Conc. (nM) 0.09, 4 days) was 84.50% and 79.80% and 95.09% and 95.13%. For the same compound, the “% Growth” value (MCF7 cells; Log10 Conc. (nM) -0.52, 4 days) was 99.55% and 100.47% and 99.34% and 100.40% and the “% Growth” value (MCF7 cells; Log10 Conc. (nM) -1.12, 4 days) was 92.16% and 94.11% and 96.62% and 97.54%.
